Source: patent publication EP1914304A1 (priority 1998, dated 1999)
Where “and” joins values, the source holds several entries; their conditions need not be identical. Equal entries are not always repeated.

What was measured:
[1] = molecular target: HSV-1 thymidine kinase mutant TKI 208 (Leu-170 to Val), SEQ ID 23 (codons 165-175) (Human herpesvirus 1, UniProt P06478, L170V); assay type: biochemical, Herpes Simplex Virus Type 1; conditions: Table I; purified enzyme, 34°C, 10 minutes
Description: (§1) Purification of wild-type and mutant TKs was performed by affinity chromatography on CH-Sepharose 4B (Pharmacia) coupled to p-aminophenylthymidine 3'-phosphate. Briefly, crude bacterial extract was passed three times through a 7-mL bed-volume affinity column. The column was then washed sequentially using 30 mL each of buffer A [0.1 M Tris HCl, pH 7.5/5 mM dithiothreitol (DTT)/10% glycerol], buffer B (0.1M Tris-HCl, pH 7.5/0.5 M KCl/5 mM DTT/10% glycerol), and buffer A. TK was eluted using a 60-mL linear gradient of 0-600 µM dT in buffer C (0.3 M Tris HCl, pH 7.4/50 mM KCl/10% glycerol). Active fractions were pooled and dialyzed against three changes each of 2 liters of 50 mM Tris-HCl, pH 7.4/5 mM DTT/10% glycerol. Except in the final dialysis, all the above buffers contained 50 µg/mL of aprotinin and 2 µg/mL each of pepstatin and leupeptin.
(§2) Secondly, the kinetics of AZT phosphorylation by the two mutants was determined. […] (One unit of enzyme is defined as that amount that can phosphorylate 1.0 pmol of dT to TMP in 1 minute under the conditions described above.) Incubation was at 34°C ± 1°C for 10 minutes, and reactions were stopped by adding 1.0 mM unlabeled dT and cooling on ice. Half of the reaction mixtures were pipetted onto a DEAE-cellulose disc (25 mm), dipped in distilled water (1 minute), followed by four washes in absolute ethanol. The amount of radioactivity adsorbed to the disc was determined by scintillation spectroscopy. […] All other components in the reaction mixtures and the incubation conditions were as described above for phosphorylation of AZT.
(§3) All buffers used in the purification of TK contained 5mM DTT, 50 µ/mL aprotinin, 2 µg/mL each of leupeptin and pepstatin and I mM PMSF unless otherwise indicated. […] TK assay was performed on all the fractions and peak TK - fractions were pooled and dialyzed against three changes of 21 of dialysis buffer (50 mM Tris-HCl, pH 7.4, 5 mM DTT, 10% glycerol). In the final dialysis, protease inhibitors were omitted from the buffer and the dialyzed fractions were aliquoted and stored at -70°C. The column was washed thoroughly twice by using the same washing and elution protocols as described above prior to application of each extract preparation.
(§4) Kinetic parameters were determined essentially as described below. […] Incubation was at 34 ± 1°C for 10 minutes. […] Half of the reaction mix was pipetted onto a DEAE-cellulose disc (25 mm) and the disc was dipped in distilled water (1 minute) followed by four washes each in 10 mL of absolute ethanol. The adsorbed products on the disc were counted in a scintillation counter.

[2] = molecular target: HSV-1 thymidine kinase, wild-type (pMCC), SEQ ID 13 (codons 165-175) (Human herpesvirus 1, UniProt P06478); assay type: biochemical, Herpes Simplex Virus Type 1; conditions: Table I; purified enzyme, 34°C, 10 minutes
HSV-1 thymidine kinase, wild-type (pMCC), SEQ ID 13 (codons 165-175), sequence (P06478 whole entry, looked up): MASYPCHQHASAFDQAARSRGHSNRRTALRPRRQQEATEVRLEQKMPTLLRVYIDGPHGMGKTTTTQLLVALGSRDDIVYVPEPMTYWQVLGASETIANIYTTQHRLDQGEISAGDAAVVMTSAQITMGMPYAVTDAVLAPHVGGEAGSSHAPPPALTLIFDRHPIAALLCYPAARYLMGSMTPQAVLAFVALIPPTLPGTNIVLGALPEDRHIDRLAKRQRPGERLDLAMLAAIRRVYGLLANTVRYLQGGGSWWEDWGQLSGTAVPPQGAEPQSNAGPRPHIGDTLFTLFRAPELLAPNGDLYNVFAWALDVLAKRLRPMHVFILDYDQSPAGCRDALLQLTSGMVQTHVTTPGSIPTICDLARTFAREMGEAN
Description: as §1, §2, §3, §4

[3] = test system: Rat C6 cells expressing TK mutant 75; experiment: Rat C6 kill curves with GCV and ACV; assay type: cell-based; conditions: Table VIII
Description: (§5) The seven mutants were subcloned into the mammalian expression vector, pREP8D7:dualGFP. This vector contains a constitutive metallothionin promoter, which drives the expression of green flourescent protein (GFP), and an RSV LTR promoter, which stimulated expression of the TK mutants. The vector also contains a histidinol resistance gene for selection of transformants. Purified vector DNA of these constructs was used to transfect BHK tk- cells by electroporation. The transfectants were selected by resistance to histidinol and sorted using FACS analysis for GFP expression. Pools of transfectants were then assayed for sensitivity to GCV or ACV over a range of prodrug doses. […] Table VIII illustrates the IC50 values from Rat C6 kill curves with the SR11, SR26, and SR39 mutants.

[4] = test system: Rat C6 cells expressing TK mutant 30; experiment: Rat C6 kill curves with GCV and ACV; assay type: cell-based; conditions: Table VIII
Description: as §5

[5] = test system: Rat C6 cells expressing TK mutant SR39; experiment: Rat C6 kill curves with GCV and ACV; assay type: cell-based; conditions: Table VIII
Description: as §5

[6] = test system: Rat C6 cells expressing TK mutant SR11; experiment: Rat C6 kill curves with GCV and ACV; assay type: cell-based; conditions: Table VIII
Description: as §5

[7] = test system: Rat C6 cells expressing TK mutant 411; experiment: Rat C6 kill curves with GCV and ACV; assay type: cell-based; conditions: Table VIII
Description: as §5

[8] = test system: Rat C6 cells expressing TK mutant SR26; experiment: Rat C6 kill curves with GCV and ACV; assay type: cell-based; conditions: Table VIII
Description: as §5

[9] = test system: Rat C6 cells expressing wild-type TK; experiment: Rat C6 kill curves with GCV and ACV; assay type: cell-based; conditions: Table VIII
Description: as §5

[10] = test system: BHK tk- cells transfected with pREP8D7:dualGFP expressing TK mutant 75; experiment: ACV kill curves of transfectant pools; assay type: cell-based, baby hamster; conditions: Mesocricetus auratus, Table VII
Description: as §5

[11] = test system: BHK tk- cells transfected with pREP8D7:dualGFP expressing TK mutant SR39; experiment: ACV kill curves of transfectant pools; assay type: cell-based, baby hamster; conditions: Mesocricetus auratus, Table VII
Description: as §5

[12] = test system: BHK tk- cells transfected with pREP8D7:dualGFP expressing TK mutant SR11; experiment: ACV kill curves of transfectant pools; assay type: cell-based, baby hamster; conditions: Mesocricetus auratus, Table VII
Description: as §5

[13] = test system: BHK tk- cells transfected with pREP8D7:dualGFP expressing wild-type TK; experiment: ACV kill curves of transfectant pools; assay type: cell-based, baby hamster; conditions: Mesocricetus auratus, Table VII
Description: as §5

[14] = test system: BHK tk- cells transfected with pREP8D7:dualGFP expressing TK mutant SR26; experiment: ACV kill curves of transfectant pools; assay type: cell-based, baby hamster; conditions: Mesocricetus auratus, Table VII
Description: as §5

[15] = molecular target: T1, HSV-1 thymidine kinase mutant 75 (LIF-ALL library, codons 159-161 and 168-170 randomized; pET23d:75) (Human herpesvirus 1, UniProt P0DTH5); conditions: Table V
T1 sequence (P0DTH5 1-376): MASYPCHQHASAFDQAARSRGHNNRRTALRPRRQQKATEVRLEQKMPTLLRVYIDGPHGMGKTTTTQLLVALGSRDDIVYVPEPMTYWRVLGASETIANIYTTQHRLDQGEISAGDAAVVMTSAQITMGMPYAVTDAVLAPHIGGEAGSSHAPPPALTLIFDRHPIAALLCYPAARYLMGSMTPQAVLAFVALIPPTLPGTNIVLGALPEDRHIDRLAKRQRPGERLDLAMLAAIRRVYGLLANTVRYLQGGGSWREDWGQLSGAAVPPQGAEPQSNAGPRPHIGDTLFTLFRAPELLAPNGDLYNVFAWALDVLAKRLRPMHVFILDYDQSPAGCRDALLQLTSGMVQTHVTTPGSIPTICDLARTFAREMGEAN
Description: The culture is incubated at 37°C overnight. The following day the 5ml culture is used to inoculate 1L M9ZB + cabenicillin at 20µg/ml and the culture allowed to grow at 37°C to OD600 0.1. At that point IPTG is added to 0.4mM and the culture incubated a further 3 hours. The cells are chilled on ice, pelleted by centrifugation and the pellets washed once in cell wash buffer (50mM Tris, pH 7.5, 5mM EDTA, 10% sucrose) prior to freezing the pellets at -70°C. The next day the cells are resuspended in 12ml Buffer 1 (50mM Tris, pH 7.5, 10% sucrose, 2mM DTT, 5mM EDTA, 1mM PMSF) and the volume split into two 13ml Oakridge ultracentrifuge tubes. 1ml Buffer 1 containing 3mg lysozyme is added to each tube and the tubes left on ice for 1 hr. […] The cleared supernatant is then aliquoted and frozen at -70°C.
The 1ml bed volume column is prepared by passing 10ml Buffer 1 followed by 10ml Absorption Buffer (50mM Tris, pH 7.5, 10% sucrose, 2mM DTT, 25mM MgAc2, 10mM ATP) over the column. Two ml of the cleared lysate is mixed with 2 ml of Absorption Buffer and passed through a 0.2µm filter. This mix is passed over the column 3 times. The column is washed with 5ml Absorption buffer three times and the 5ml fractions collected. […] The column is reactivated by loading on 10ml High Salt Buffer (50mM Tris, pH 7.5, 10% sucrose, 2mM DTT, 0.5M KCl) and 10ml 50mM Tris, pH 7.5. The column is stored in 50mM Tris pH 7.5 + 0.004% sodium azide. The extent of purification is monitored by Coomassie stained SDS:PAGE analysis and the concentration of purified protein determined using the BioRad Reagent (Bradford Reagent).
Km and Vmax values are determined from double reciprocal plots and kcat values are calculated using the equation Vmax = kcat [Eo] where [Eo] is the total enzyme concentration. The BioRad reagent was used to determine the total enzyme concentration of purified thymidine kinase enzymes.

HSV-1 thymidine kinase mutant TKI 208 (Leu-170 to Val), SEQ ID 23 (codons 165-175), sequence (P06478 whole entry L170V, looked up): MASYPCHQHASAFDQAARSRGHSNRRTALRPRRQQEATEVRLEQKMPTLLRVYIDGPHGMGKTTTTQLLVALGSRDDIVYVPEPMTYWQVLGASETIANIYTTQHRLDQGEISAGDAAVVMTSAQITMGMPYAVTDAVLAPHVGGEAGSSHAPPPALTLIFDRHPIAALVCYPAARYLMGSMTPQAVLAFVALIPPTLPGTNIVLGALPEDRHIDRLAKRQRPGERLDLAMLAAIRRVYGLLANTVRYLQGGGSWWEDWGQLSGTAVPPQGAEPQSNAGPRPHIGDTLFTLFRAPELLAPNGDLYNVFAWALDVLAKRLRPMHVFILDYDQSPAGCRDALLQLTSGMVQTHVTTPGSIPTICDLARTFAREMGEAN

Structure (SMILES)	Km [1]	kcat [1]	Km [2]	kcat [2]	IC50 [3]	IC50 [4]	IC50 [5]	IC50 [6]	IC50 [7]	IC50 [8]	IC50 [9]	IC50 [10]	IC50 [11]	IC50 [12]	IC50 [13]	IC50 [14]	Km ([15]; double reciprocal plots)	kcat ([15]; per active site)
Cc1cn([C@H]2C[C@H](N=[N+]=[N-])[C@@H](CO)O2)c(=O)[nH]c1=O [AZT, 3' azido-3' thymidine]	4.4 µM	0.03 s⁻¹	8.5 µM and 8.46 µM	0.036 s⁻¹	–	–	–	–	–	–	–	–	–	–	–	–	–	–
Nc1nc2c(ncn2COCCO)c(=O)[nH]1 [acyclovir]	–	–	–	–	> 20000 nM	260 nM	110 nM	6000 nM	14000 nM	760 nM	> 20000 nM	60 nM	30 nM	25 nM	200 nM	35 nM	23 µM	.010 s⁻¹
